Data from PubChem BioAssay AID248 (DTP/NCI, 2004).
Inconclusive results and toxic doses are left out.

Test system: L1210 leukemia ip in BDF1 mice, survival T/C
Test: NCI In Vivo Anticancer Drug Screen. Data for tumor model L1210 Leukemia (intraperitoneal) in B6D2F1 (BDF1) mice
Conditions: endpoint: mean survival time, higher = longer survival
How it was run: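 Ratio derived from survival: compound-dosed mice over vehicle-dosed mice, all bearing a transplantable tumor.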

[1] = dose: 100.0 mg/kg/injection, schedule: Q01DX009 (ip), vehicle: Klucel (hydroxypropylcellulose) (HPC)
[2] = dose: 200.0 mg/kg/injection, schedule: Q01DX009 (ip), vehicle: Klucel (hydroxypropylcellulose) (HPC)
[3] = dose: 400.0 mg/kg/injection, schedule: Q01DX009 (ip), vehicle: Klucel (hydroxypropylcellulose) (HPC)
[4] = dose: 100.0 mg/kg/injection, schedule: Q04DX003 (ip), vehicle: Klucel (hydroxypropylcellulose) (HPC)
[5] = dose: 200.0 mg/kg/injection, schedule: Q04DX003 (ip), vehicle: Klucel (hydroxypropylcellulose) (HPC)
[6] = dose: 100.0 mg/kg/injection, schedule: Q01DX001 (ip), vehicle: Klucel (hydroxypropylcellulose) (HPC)
[7] = dose: 200.0 mg/kg/injection, schedule: Q01DX001 (ip), vehicle: Klucel (hydroxypropylcellulose) (HPC)
[8] = dose: 400.0 mg/kg/injection, schedule: Q01DX001 (ip), vehicle: Klucel (hydroxypropylcellulose) (HPC)

## CN(N=O)C(=O)NC1CCOCC1
dose: 10.0 mg/kg/injection, schedule: Q01DX001 (ip), vehicle: saline
  T/C: 102 % of control
dose: 20.0 mg/kg/injection, schedule: Q01DX001 (ip), vehicle: saline
  T/C: 103 % of control
dose: 40.0 mg/kg/injection, schedule: Q01DX001 (ip), vehicle: saline
  T/C: 104 % of control
dose: 60.0 mg/kg/injection, schedule: Q01DX001 (ip), vehicle: saline
  T/C: 109 % of control
dose: 90.0 mg/kg/injection, schedule: Q01DX001 (ip), vehicle: saline
  T/C: 102 % of control
dose: 187.0 mg/kg/injection, schedule: Q01DX001 (ip), vehicle: saline
  T/C: 119 % of control
dose: 250.0 mg/kg/injection, schedule: Q01DX001 (ip), vehicle: saline
  T/C: 112 % of control
dose: 500.0 mg/kg/injection, schedule: Q01DX001 (ip), vehicle: saline
  T/C: 159 % of control
dose: 750.0 mg/kg/injection, schedule: Q01DX001 (ip), vehicle: saline
  T/C: 187 % of control

## O=C(N/N=C/c1cccnc1)c1ccc(O)cc1
[1]
  T/C: 91 % of control
[2]
  T/C: 96 % of control
[3]
  T/C: 94 % of control

## CC(=O)N(C)CC(O)C(O)C(O)C(O)CO (centres undefined)
dose: 100.0 mg/kg/injection, schedule: Q04DX003 (ip), vehicle: saline with Tween-80
  T/C: 100 % of control
dose: 200.0 mg/kg/injection, schedule: Q04DX003 (ip), vehicle: saline with Tween-80
  T/C: 94 % of control
dose: 400.0 mg/kg/injection, schedule: Q04DX003 (ip), vehicle: saline with Tween-80
  T/C: 96 % of control

## O=C(NCCCl)n1cncn1
dose: 100.0 mg/kg/injection, schedule: Q01DX009 (ip), vehicle: acetone
  T/C: 100 % of control
dose: 100.0 mg/kg/injection, schedule: Q04DX003 (ip), vehicle: acetone
  T/C: 102 % of control
dose: 200.0 mg/kg/injection, schedule: Q01DX009 (ip), vehicle: acetone
  T/C: 92 % of control
dose: 200.0 mg/kg/injection, schedule: Q04DX003 (ip), vehicle: acetone
  T/C: 102 % of control
dose: 400.0 mg/kg/injection, schedule: Q01DX009 (ip), vehicle: acetone
  T/C: 103 % of control
dose: 400.0 mg/kg/injection, schedule: Q04DX003 (ip), vehicle: acetone
  T/C: 102 % of control

## O=S(=O)(O)C(I)(I)S(=O)(=O)O
dose: 100.0 mg/kg/injection, schedule: Q04DX003 (ip), vehicle: saline
  T/C: 99 % of control
dose: 200.0 mg/kg/injection, schedule: Q04DX003 (ip), vehicle: saline
  T/C: 100 % of control
dose: 400.0 mg/kg/injection, schedule: Q04DX003 (ip), vehicle: saline
  T/C: 95 % of control

## CC(=O)Nc1cc(C(=O)Nc2ccc(C)cc2C)ccc1C
dose: 50.0 mg/kg/injection, schedule: Q04DX003 (ip), vehicle: Klucel (hydroxypropylcellulose) (HPC)
  T/C: 92 % of control
[4]
  T/C: 92 % of control
[5]
  T/C: 92 % of control

## O=c1[nH]c(=O)n(CCCOc2ccccc2)cc1CCc1ccccc1
[6]
  T/C: 91 % of control
[7]
  T/C: 94 % of control
[8]
  T/C: 87 % of control

## Cc1cn(C2OC(C(O)C(N)=O)C(O)C2O)c(=O)[nH]c1=O (centres undefined)
dose: 100.0 mg/kg/injection, schedule: Q01DX001 (ip), vehicle: saline
  T/C: 97 % of control
dose: 200.0 mg/kg/injection, schedule: Q01DX001 (ip), vehicle: saline
  T/C: 114 % of control
dose: 400.0 mg/kg/injection, schedule: Q01DX001 (ip), vehicle: saline
  T/C: 101 % of control

## O=C(NCCCCNC(=O)Nc1ccc(C2=NCCN2)cc1)Nc1ccc(C2=NCCN2)cc1
dose: 8.0 mg/kg/injection, schedule: Q01DX Z (ip), vehicle: carboxymethylcellulose (CMC)
  T/C: 88 % of control
dose: 16.0 mg/kg/injection, schedule: Q01DX Z (ip), vehicle: carboxymethylcellulose (CMC)
  T/C: 92 % of control
dose: 31.0 mg/kg/injection, schedule: Q01DX Z (ip), vehicle: carboxymethylcellulose (CMC)
  T/C: 101 % of control
dose: 62.0 mg/kg/injection, schedule: Q01DX Z (ip), vehicle: carboxymethylcellulose (CMC)
  T/C: 123 % of control
dose: 125.0 mg/kg/injection, schedule: Q01DX Z (ip), vehicle: carboxymethylcellulose (CMC)
  T/C: 112 % of control

## N#CC(Cl)(Cl)C(N)=O
dose: 12.5 mg/kg/injection, schedule: Q04DX002 (ip), vehicle: saline
  T/C: 88 % of control

## COC(=S)SCN(CSC(=S)OC)c1ccccc1Cl
dose: 50.0 mg/kg/injection, schedule: Q01DX001 (ip), vehicle: Klucel (hydroxypropylcellulose) (HPC)
  T/C: 111 % of control
[6]
  T/C: 101 % of control
[1]
  T/C: 109 % of control
[4]
  T/C: 103 % of control
[7]
  T/C: 103 % of control
[2]
  T/C: 109 % of control
[5]
  T/C: 95 % of control
[8]
  T/C: 98 % of control
[3]
  T/C: 109 % of control
dose: 400.0 mg/kg/injection, schedule: Q04DX003 (ip), vehicle: Klucel (hydroxypropylcellulose) (HPC)
  T/C: 103 % of control
